Entries after “also recorded” stand apart in the source; their conditions may differ.
Experiments:
Type in all cases: cell-based, human
[1] = test system: CD8+ T cells stimulated with peptide-pulsed DCs (HLA-A*2402 positive); experiment: In vitro CTL induction and establishment of CTL lines; conditions: cells of positive wells expanded
Source text: Monocyte-derived dendritic cells (DCs) were used as antigen-presenting cells (APCs) to induce cytotoxic T lymphocyte (CTL) responses against peptides presented on human leukocyte antigen (HLA). DCs were generated in vitro as described elsewhere (Nakahara S et al., Cancer Res 2003 Jul. 15, 63(14): 4112-8). Specifically, peripheral blood mononuclear cells (PBMCs) isolated from a normal volunteer (HLA-A*2402 positive) by Ficoll-Plaque (Pharmacia) solution were separated by adherence to a plastic tissue culture dish (Becton Dickinson) so as to enrich them as the monocyte fraction. The monocyte-enriched population was cultured in the presence of 1000 U/ml of granulocyte-macrophage colony-stimulating factor (GM-CSF) (R&D System) and 1000 U/ml of interleukin (IL)-4 (R&D System) in AIM-V Medium (Invitrogen) containing 2% heat-inactivated autologous serum (AS). After 7 days of culture, the cytokine-induced DCs were pulsed with 20 mcg/ml of each of the synthesized peptides in the presence of 3 mcg/ml of beta2-microglobulin for 3 hr at 37 degrees C. in AIM-V Medium. The generated cells appeared to express DC-associated molecules, such as CD80, CD83, CD86 and HLA class II, on their cell surfaces (data not shown). These peptide-pulsed DCs were then inactivated by Mitomycin C (MMC) (30 mcg/ml for 30 min) and mixed at a 1:20 ratio with autologous CD8+ T cells, obtained by positive selection with CD8 Positive Isolation Kit (Dynal). These cultures were set up in 48-well plates (Corning); each well contained 1.5×10^4 peptide-pulsed DCs, 3×10^5 CD8+ T cells and 10 ng/ml of IL-7 (R&D System) in 0.5 ml of AIM-V/2% AS medium. Three days later, these cultures were supplemented with IL-2 (CHIRON) to a final concentration of 20 IU/ml. On day 7 and 14, the T cells were further stimulated with the autologous peptide-pulsed DCs. The DCs were prepared each time by the same way described above. […]

[2] = test system: peptide-pulsed A24LCL cells; experiment: IFN-gamma ELISA assay on established CTL lines; conditions: target cells pulsed with corresponding peptide vs target cells without peptide pulse
Experimental: CTLs were expanded in culture using the method similar to the one described by Riddell et al. (Walter E A et al., N Engl J Med 1995 Oct. 19, 333(16): 1038-44; Riddell S R et al., Nat Med 1996 February, 2(2): 216-23). A total of 5×10^4 CTLs were suspended in 25 ml of AIM-V/5% AS medium with 2 kinds of human B-lymphoblastoid cell lines, inactivated by MMC, in the presence of 40 ng/ml of anti-CD3 monoclonal antibody (Pharmingen). One day after initiating the cultures, 120 IU/ml of IL-2 were added to the cultures. The cultures were fed with fresh AIM-V/5% AS medium containing 30 IU/ml of IL-2 on days 5, 8 and 11 (Tanaka H et al., Br J Cancer 2001 Jan. 5, 84(1): 94-9; Umano Y et al., Br J Cancer 2001 Apr. 20, 84(8): 1052-7; Uchida N et al., Clin Cancer Res 2004 Dec. 15, 10(24): 8577-86; Suda T et al., Cancer Sci 2006 May, 97(5): 411-9; Watanabe T et al., Cancer Sci 2005 August, 96(8): 498-506).
(§1) To examine specific CTL activity, interferon (IFN)-gamma enzyme-linked immunospot (ELISPOT) assay and IFN-gamma enzyme-linked immunosorbent assay (ELISA) were performed. Specifically, peptide-pulsed A24LCL (1×10^4/well) was prepared as stimulator cells. Cultured cells in 48 wells were used as responder cells. IFN-gamma ELISPOT assay and IFN-gamma ELISA assay were performed under manufacture procedure.

[3] = test system: peptide-pulsed A24LCL cells; experiment: IFN-gamma ELISPOT assay on CTLs induced with MYBL2 peptides; conditions: against peptide-pulsed target cells vs control without peptide, day 21 after 3rd stimulation
Source text: Monocyte-derived dendritic cells (DCs) were used as antigen-presenting cells (APCs) to induce cytotoxic T lymphocyte (CTL) responses against peptides presented on human leukocyte antigen (HLA). DCs were generated in vitro as described elsewhere (Nakahara S et al., Cancer Res 2003 Jul. 15, 63(14): 4112-8). Specifically, peripheral blood mononuclear cells (PBMCs) isolated from a normal volunteer (HLA-A*2402 positive) by Ficoll-Plaque (Pharmacia) solution were separated by adherence to a plastic tissue culture dish (Becton Dickinson) so as to enrich them as the monocyte fraction. The monocyte-enriched population was cultured in the presence of 1000 U/ml of granulocyte-macrophage colony-stimulating factor (GM-CSF) (R&D System) and 1000 U/ml of interleukin (IL)-4 (R&D System) in AIM-V Medium (Invitrogen) containing 2% heat-inactivated autologous serum (AS). After 7 days of culture, the cytokine-induced DCs were pulsed with 20 mcg/ml of each of the synthesized peptides in the presence of 3 mcg/ml of beta2-microglobulin for 3 hr at 37 degrees C. in AIM-V Medium. The generated cells appeared to express DC-associated molecules, such as CD80, CD83, CD86 and HLA class II, on their cell surfaces (data not shown). These peptide-pulsed DCs were then inactivated by Mitomycin C (MMC) (30 mcg/ml for 30 min) and mixed at a 1:20 ratio with autologous CD8+ T cells, obtained by positive selection with CD8 Positive Isolation Kit (Dynal). These cultures were set up in 48-well plates (Corning); each well contained 1.5×10^4 peptide-pulsed DCs, 3×10^5 CD8+ T cells and 10 ng/ml of IL-7 (R&D System) in 0.5 ml of AIM-V/2% AS medium. Three days later, these cultures were supplemented with IL-2 (CHIRON) to a final concentration of 20 IU/ml. On day 7 and 14, the T cells were further stimulated with the autologous peptide-pulsed DCs. The DCs were prepared each time by the same way described above. CTL was tested against peptide-pulsed A24LCL cells after the 3rd round of peptide stimulation on day 21 (Tanaka H et al., Br J Cancer 2001 Jan. 5, 84(1): 94-9; Umano Y et al., Br J Cancer 2001 Apr. 20, 84(8): 1052-7; Uchida N et al., Clin Cancer Res 2004 Dec. 15, 10(24): 8577-86; Suda T et al., Cancer Sci 2006 May, 97(5): 411-9; Watanabe T et al., Cancer Sci 2005 August, 96(8): 498-506).
as §1

| Sequence | Establishment of CTL lines [1] | IFN-gamma production of established CTL lines (ELISA) [2] | IFN-gamma production of established CTL lines (ELISA) ([2]; listed as MYBL2-A24-9-370) | IFN-gamma production of peptide-stimulated CTLs (ELISPOT) ([3]; listed as MYBL2-A24-9-370) | IFN-gamma production of established CTL lines (ELISA) ([2]; listed as MYBL2-A24-10-197) | IFN-gamma production of peptide-stimulated CTLs (ELISPOT) ([3]; listed as MYBL2-A24-10-197) | IFN-gamma production of established CTL lines (ELISA) ([2]; listed as MYBL2-A24-9-100) | IFN-gamma production of peptide-stimulated CTLs (ELISPOT) ([3]; listed as MYBL2-A24-9-100) | IFN-gamma production of established CTL lines (ELISA) ([2]; listed as MYBL2-A24-10-48) | IFN-gamma production of peptide-stimulated CTLs (ELISPOT) ([3]; listed as MYBL2-A24-10-48) |
| --- | --- | --- | --- | --- | --- | --- | --- | --- | --- | --- |
| EYRLDGHTI [SEQ ID NO: 2, 9-mer peptide derived from MYBL2, start position 370] | expanded and established CTL lines | potent IFN-gamma production against the target cells pulsed with corresponding peptide | potent IFN-gamma production as compared with the control | potent IFN-gamma production as compared to the control wells; also recorded: potent IFN-gamma production as compared with the control | – | – | – | – | – | – |
| KPPVYLLLEL [SEQ ID NO: 13, 10-mer peptide derived from MYBL2, start position 197] | expanded and established CTL lines | potent IFN-gamma production against the target cells pulsed with corresponding peptide | – | – | potent IFN-gamma production as compared with the control | potent IFN-gamma production as compared to the control wells; also recorded: potent IFN-gamma production as compared with the control | – | – | – | – |
| KYGTKQWTL [SEQ ID NO: 1, 9-mer peptide derived from MYBL2, start position 100] | expanded and established CTL lines | potent IFN-gamma production against the target cells pulsed with corresponding peptide | – | – | – | – | potent IFN-gamma production as compared with the control | potent IFN-gamma production as compared to the control wells; also recorded: potent IFN-gamma production as compared with the control | – | – |
| QFGQQDWKFL [SEQ ID NO: 12, 10-mer peptide derived from MYBL2, start position 48] | – | – | – | – | – | – | – | – | typical negative data of CTL response; also recorded: no specific IFN-gamma production against peptide-pulsed target cells was observed | typical negative data of CTL response; also recorded: no specific IFN-gamma production was detected |
